Values quoted from earlier work, collected in PMC10879402, “Comparative Study of Dermal Pharmacokinetics Between Topical Drugs Using Open Flow Microperfusion in a Pig Model” (Pharmaceutical Research, 2023).
Values belong to the compound of their own block, whether it stands above or below them.

Legend:
[1] = set-up: method as in ref 52 (PF-06263276), ref 51 (PF-06763809); details: formulation used in this study (PF-06263276 4% solution, PF-06763809 2.3%); ref 52 (PF-06263276), ref 51 (PF-06763809)
[2] = set-up: method as in ref 64 (a number printed in a supplementary file, which may have a reference list of its own: not looked up in the article's list); details: topical brepocitinib 0.1%, 0.3%, 1% and 3%
[3] = set-up: method as in PMID 32949620; details: topical application of a […] cream formulation

SMILES: CCc1cc(O)c(F)cc1-c1ccc2c(-c3nc4c([nH]3)CCN(C(=O)c3cnc(N5CCCCC5)cn3)C4)n[nH]c2c1 [PF-06263276]
- efficacy in human psoriasis plaque test [1]: no efficacy

SMILES: Cn1cc(Nc2nccc(N3C[C@H]4CC[C@@H](C3)N4C(=O)[C@@H]3CC3(F)F)n2)cn1 [brepocitinib]
- outcome in psoriasis clinical study [2]: did not meet the primary and secondary endpoints

- dermal ruxolitinib concentration (total) [3]: 63 µM
- dermal ruxolitinib concentration (unbound) [3]: 12 µM
SMILES: N#CC[C@H](C1CCCC1)n1cc(-c2ncnc3[nH]ccc23)cn1 [ruxolitinib]
